The text below walks through data of patent publication US10273234B2, “Compounds that are S1P modulating agents and/or ATX modulating agents” (BIOGEN MA INC., priority 2012, dated 2019).

In the test the target is human S1P4 (Homo sapiens (Human), UniProt O95977). Nature of the test: Calcium mobilization (calcium flux) assay, antagonist format, S1P4. In kind it is cell-based. The settings on record: recombinant CHEM cells expressing human S1P4; FLIPR Calcium 4 dye; stimulated with EC80 of reference agonist. The procedure:
Compounds that are not specific for a particular S1P receptor can cause undesirable side effects. Accordingly, compounds are tested to identify those that are specific. Accordingly, the test compounds are tested in a calcium mobilization assay/S1P receptor activity assay. The procedure is essentially as described in Davis et al. (2005) Journal of Biological Chemistry, vol. 280, pp. 9833-9841, which is incorporated by reference in its entirety with the following modifications. Calcium mobilization assays are performed in recombinant CHEM cells expressing human S1P1, S1P2, S1P3, S1P4, or S1P5 purchased from Millipore (Billerica, Mass.). To detect free intracellular calcium, S1P1, S1P2, S1P3, S1P4, or S1P5 cells are loaded with FLIPR Calcium 4 dye from Molecular Devices (Sunnyvale, Calif.). Cells are imaged for calcium mobilization using a FLIPR^TETRA equipped with a 96-well dispense head. […]
Assay was read for 180 seconds using the FLIPR^TETRA (This assay run added sample compounds and reference agonist to respective wells). […]
Using the EC80 values determined during the agonist assay, stimulated all pre-incubated sample compound and reference antagonist (if applicable) wells with EC80 of reference agonist. Read for 180 seconds using the FLIPR^TETRA (This assay added reference agonist to respective wells—then fluorescence measurements were collected to calculate percentage inhibition values).

Molecules are shown by their SMILES.

human S1P4, sequence (O95977 whole entry): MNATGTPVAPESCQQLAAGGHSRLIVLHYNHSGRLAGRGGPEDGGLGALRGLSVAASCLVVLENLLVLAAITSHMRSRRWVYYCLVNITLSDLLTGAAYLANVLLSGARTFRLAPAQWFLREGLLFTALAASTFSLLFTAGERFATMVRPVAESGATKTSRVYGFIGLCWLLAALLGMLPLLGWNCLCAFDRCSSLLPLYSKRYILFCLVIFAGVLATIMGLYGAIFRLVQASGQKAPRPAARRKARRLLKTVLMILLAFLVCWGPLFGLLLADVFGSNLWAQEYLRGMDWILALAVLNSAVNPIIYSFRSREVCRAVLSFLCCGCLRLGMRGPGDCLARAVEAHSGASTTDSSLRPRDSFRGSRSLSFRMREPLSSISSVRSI

A word on the IC50: it is the point on the concentration scale where inhibition reaches its midpoint. Turning to `CC(C)(C)[C@H]1CC[C@H](Oc2cccc3c(CN4CCC(C(=O)O)CC4)cccc23)CC1` [Example 30, 1-((5-((trans-4-(tert-butyl)cyclohexyl)oxy)naphthalen-1-yl)methyl)piperidine-4-carboxylic acid], the IC50 is no more than 250 nM.
